Holding throughout (format): cell-based
The test system of one data set is HBsAg. As to the kind of experiment: PHH HBV natural infection assay, HBsAg (alphalisa). The protocol: (§1) Detailed procedures regarding primary human hepatocyte (PHH) HBV natural infection assay are described as below. One tube of frozen PHH (10 million cells) is thawed in 37° C. water bath and then transferred to 20 mL of PHH thawing medium (Sigma, InVitroGRO HT Medium, Cat. S03319) with gently mixing. The cells were then centrifuged at […] for 5 min, the supernatant was discarded and the tube was refilled with 25 mL of PHH plating medium (Sigma, InVitroGRO CP Medium, Cat. S03317). The tube was shaken very gently to re-suspend all cells, and then 50 µl of cells were transferred to each well 384-well collagen I coated plate with appropriate liquid handling equipment, e.g. Integra VIAFLO384 or Agilent Bravo. The cells were then cultured for 24 hours in a cell incubator. For HBV infection, after PHH attachment on the culture plate, the plating medium was removed and replenished with PHH culture medium containing HBV virus. The PHH culture medium was prepared with Dulbecco’s Modified Eagle Medium (DMEM)/F12 (1: 1 in volume ratio) containing 10% fetal bovine serum (Gibco, Cat. 10099141), 5 ng/mL human epidermal growth factor (Gibco, Cat.PHG0311L), 20 ng/mL dexamethasone (Sigma, Cat.D4902-100mg), 250 ng/mL human recombinant insulin (Gibco, Cat.41400045) and 100 U/mL penicillin. HBV virus at 200 genome equivalent (GE) per cell with 4% PEG8000 (Sigma, Cat.P1458) containing culture medium were added to the PHH culture medium for infection. The cells were then cultured for 24 hours in cell incubator. Then the cell culture supernatant was removed. The HBV-infected PHH were cultured with sandwich culture method with PHH culture medium containing 1% DMSO and 0.25 mg/mL matrix gel for 72 hours. The supernatant was then refreshed with PHH culture medium containing different concentrations of testing compounds for two times with 72-hour interval. At the end of treatment, the supernatant was collected for viral markers measurements, including HBsAg, HBeAg, HBV DNA and cytotoxicity. HBsAg and HBeAg were detected using alphalisa method using their specific antibodies. For HBV DNA detection, HBV DNA Quantitative Fluorescence Diagnostic Kit (Sansure Biotech Inc.) was used following the manufacture’s protocol. Cytotoxicity was determined using Cell Counting Kit-8 (CCK8, Dojindo Molecular Technologies, Inc.).
(§2) The compounds of the present invention were tested for their capacity to inhibit HBsAg and HBeAg as described herein.

Another data set relates to HBeAg. As to the kind of experiment: PHH HBV natural infection assay, HBeAg (alphalisa). The protocol:
as §1, §2
For orientation: In Alpha technology, singlet oxygen from a donor bead excites a nearby acceptor bead.

The nature of data set [1]: Cytotoxicity in PHH natural infection assay (Cell Counting Kit-8). The conditions noted are these: human; HBV-infected PHH, CCK8, compound refreshed two times with 72-hour interval. As to the method:
as §1
In general terms: Tetrazolium assays rely on reduction of a dye to a coloured formazan, in cell work by metabolically active cells.

The mark [2] stands for this setting: Hepatitis B virus, 72 h, read-out: HBsAg IC50, HBV-infected PHH, culture supernatant, compound refreshed two times with 72-hour interval, alphalisa.
Setting [3] is: Hepatitis B virus, 72 h, read-out: HBeAg IC50, HBV-infected PHH, culture supernatant, compound refreshed two times with 72-hour interval, alphalisa.
[4] abbreviates: read-out: HBsAg IC50, HBV-infected PHH, culture supernatant, compound refreshed two times with 72-hour interval, alphalisa.
Setting [5] is: read-out: HBeAg IC50, HBV-infected PHH, culture supernatant, compound refreshed two times with 72-hour interval, alphalisa.

Like-named read-outs stand apart in the source and are kept apart here. Bounds are passed on as bounds.

As a reminder, the IC50 is the concentration needed to halve the response being measured. One may read the CC50 as the concentration at which the toxic effect on the cells reaches its halfway point. Low values mean greater toxicity to the cells, high ones lower toxicity to the cells. Take `CC(C)(c1cc(C(=O)NC2CC3(C2)CC(c2nc4cc(Cl)ccc4s2)C3)ccn1)S(C)(=O)=O` (stereo not drawn) [Example 8, N-[6-(5-chloro-1,3-benzothiazol-2-yl)spiro[3.3]heptan-2-yl]-2-(1-methyl-1-methylsulfonylethyl)pyridine-4-carboxamide]: the results for the IC50 with HBsAg (setting [2]) and in the data set on HBeAg (setting [3]) were 1.89 µM and 1230 nM, respectively. Also, in data set [1], the CC50 at 144 h worked out at 35.9 µM.

In the case of `O=C(CC1CCCS(=O)(=O)C1)NC1CC2(C1)CC(c1nc3cc(Cl)ccc3s1)C2` (stereo not drawn) [Example 30, N-[6-(5-chloro-1,3-benzothiazol-2-yl)spiro[3.3]heptan-2-yl]-2-(1,1-dioxothian-3-yl)acetamide], the IC50 in the data set on HBsAg (setting [2]) stood at 3.47 µM; in the data set with HBeAg (setting [3]) it was 3470 nM. This molecule came in with a CC50 at 144 h in data set [1] of more than 10 µM.

In the case of `O=C(NC1CC2(C1)CC(c1nc3cc(Cl)ccc3s1)C2)C1CCS(=O)(=O)N1` (stereo not drawn) [Example 34, N-[6-(5-chloro-1,3-benzothiazol-2-yl)spiro[3.3]heptan-2-yl]-1,1-dioxo-1,2-thiazolidine-3-carboxamide], the IC50 was determined as 7.11 µM in the data set with HBsAg (setting [2]) and 5670 nM in the data set on HBeAg (setting [3]). The molecule further came in with a CC50 at 144 h in data set [1] of more than 10 µM.

Regarding `O=C(NC1CC2(C1)CC(c1nc3cc(Cl)ccc3s1)C2)c1ccnc(S(=O)(=O)CC2CC2)c1` (stereo not drawn) [Example 39, N-[6-(5-chloro-1,3-benzothiazol-2-yl)spiro[3.3]heptan-2-yl]-2-(cyclopropylmethylsulfonyl)pyridine-4-carboxamide], the IC50 in the data set with HBsAg (setting [2]) was 0.79 µM; in the data set with HBeAg (setting [3]), 340 nM. Also, the CC50 at 144 h in data set [1] was more than 10 µM.

In the case of `O=C(NC1CC2(C1)CC(c1nc3cc(Cl)ccc3s1)C2)c1ccc(S(=O)(=O)N2CC(F)(F)C2)o1` (stereo not drawn) [Example 21, N-[6-(5-chloro-1,3-benzothiazol-2-yl)spiro[3.3]heptan-2-yl]-5-(3,3-difluoroazetidin-1-yl)sulfonyl-furan-2-carboxamide], the IC50 came out at 1.49 µM with HBsAg (setting [2]) and 1140 nM in the data set with HBeAg (setting [3]). This molecule also yielded a CC50 at 144 h in data set [1] of more than 10 µM.

Take `O=C(NC1CC2(C1)CC(c1nc3cc(Cl)ccc3s1)C2)c1ccc(S(=O)(=O)NC2CC(C(F)(F)F)C2)o1` (stereo not drawn) [Example 24, N-[6-(5-chloro-1,3-benzothiazol-2-yl)spiro[3.3]heptan-2-yl]-5-[[3-(trifluoromethyl)cyclobutyl]sulfamoyl]furan-2-carboxamide]: the IC50 stood at 1.4 µM in the data set on HBsAg (setting [2]) and 1040 nM with HBeAg (setting [3]). In addition, the midpoint of cytotoxicity in data set [1], the CC50 at 144 h, lay at 19.7 µM.

Regarding `NC(=O)Nc1cc(C(=O)NC2CC3(C2)CC(c2nc4cc(Cl)ccc4s2)C3)ccn1` (stereo not drawn) [Example 10, N-[6-(5-chloro-1,3-benzothiazol-2-yl)spiro[3.3]heptan-2-yl]-2-ureido-pyridine-4-carboxamide], the IC50 in the data set on HBsAg (setting [2]) is 7.7 µM; in the data set on HBeAg (setting [3]), 8430 nM. Further, in data set [1], the CC50 at 144 h was more than 50 µM.

On to `[H][C@]1(NC(=O)c2ccnc(S(=O)(=O)C3CC3)c2)C[C@]2(C1)C[C@]([H])(c1nc3cc(Cl)ccc3s1)C2` (single isomer, unassigned) [Example 55-b, (Ra)-N-[6-(5-chloro-1,3-benzothiazol-2-yl)spiro[3.3]heptan-2-yl]-2-cyclopropylsulfonyl-pyridine-4-carboxamide], for which the results for the IC50 in the data set with HBsAg (setting [4]) and with HBeAg (setting [5]) were 0.54 µM and 400 nM, respectively. Also, it took 11.6 µM to reach half-maximal cytotoxicity in data set [1] (CC50 at 144 h).

Regarding `O=C1CCC(CC(=O)NC2CC3(C2)CC(c2nc4cc(Cl)ccc4s2)C3)N1` (stereo not drawn) [Example 33, N-[6-(5-chloro-1,3-benzothiazol-2-yl)spiro[3.3]heptan-2-yl]-2-(5-oxopyrrolidin-2-yl)acetamide], the values for the IC50 with HBsAg (setting [2]) and in the data set with HBeAg (setting [3]) were 4.08 µM and 4120 nM, respectively. The CC50 at 144 h in data set [1] is more than 10 µM.

Regarding `O=C(NC1CC2(C1)CC(c1nc3cc(Cl)ccc3s1)C2)c1ccnc(C(F)(F)F)c1` (stereo not drawn) [Example 4, N-[6-(5-chloro-1,3-benzothiazol-2-yl)spiro[3.3]heptan-2-yl]-2-(trifluoromethyl)pyridine-4-carboxamide], the IC50 in the data set with HBsAg (setting [2]) is 5.05 µM; in the data set on HBeAg (setting [3]) it was 4340 nM. The same molecule registered a CC50 at 144 h in data set [1] of more than 10 µM.

For `O=C(NC1CC2(C1)CC(c1nc3cc(Cl)ccc3s1)C2)c1ccc(S(=O)(=O)NC2CC(F)(F)C2)o1` (stereo not drawn) [Example 23, N-[6-(5-chloro-1,3-benzothiazol-2-yl)spiro[3.3]heptan-2-yl]-5-[(3,3-difluorocyclobutyl)sulfamoyl]furan-2-carboxamide], the half-maximal inhibitory concentration (IC50) stood at 1.25 µM in the data set with HBsAg (setting [2]) and 850 nM with HBeAg (setting [3]). The same molecule gave a half-maximal cytotoxic concentration (CC50) at 144 h in data set [1] of 14.3 µM.

As to `CP(C)(=O)c1cccc(C(=O)NC2CC3(C2)CC(c2nc4cc(Cl)ccc4s2)C3)c1` (stereo not drawn) [Example 3, N-[6-(5-chloro-1,3-benzothiazol-2-yl)spiro[3.3]heptan-2-yl]-3-dimethylphosphoryl-benzamide], the IC50 in the data set with HBsAg (setting [2]) turned out to be 6.37 µM; in the data set with HBeAg (setting [3]), 4390 nM. For the same molecule, the half-maximal cytotoxic concentration (CC50) at 144 h in data set [1] was more than 10 µM.

In the case of `O=C(NC1CC2(C1)CC(c1nc3cc(Cl)ccc3s1)C2)c1cccc(C(F)(F)F)c1` (stereo not drawn) [Example 1, N-[6-(5-chloro-1,3-benzothiazol-2-yl)spiro[3.3]heptan-2-yl]-3-(trifluoromethyl)benzamide], the IC50 was found to be 6.55 µM in the data set with HBsAg (setting [2]) and 4530 nM in the data set on HBeAg (setting [3]). Also, the CC50 at 144 h in data set [1] was more than 10 µM.

For the molecule `COc1cc(C(=O)NC2CC3(C2)CC(c2nc4cc(Cl)ccc4s2)C3)ccn1` (stereo not drawn) [Example 42, N-[6-(5-chloro-1,3-benzothiazol-2-yl)spiro[3.3]heptan-2-yl]-2-methoxy-pyridine-4-carboxamide], the results for the IC50 in the data set with HBsAg (setting [2]) and in the data set with HBeAg (setting [3]) were 3.12 µM and 2670 nM, respectively. Besides, the 50% cytotoxic concentration (CC50) at 144 h in data set [1] was more than 10 µM.

Take `CNc1cc(C(=O)NC2CC3(C2)CC(c2nc4cc(Cl)ccc4s2)C3)ccn1` (stereo not drawn) [Example 44, N-[6-(5-chloro-1,3-benzothiazol-2-yl)spiro[3.3]heptan-2-yl]-2-(methylamino)pyridine-4-carboxamide]: the IC50 in the data set with HBsAg (setting [2]) came out at 3.24 µM; in the data set with HBeAg (setting [3]), 3180 nM. For the same molecule, the CC50 at 144 h in data set [1] is more than 10 µM.

For `O=C(CN1CCCCS1(=O)=O)NC1CC2(C1)CC(c1nc3cc(Cl)ccc3s1)C2` (stereo not drawn) [Example 35, N-[6-(5-chloro-1,3-benzothiazol-2-yl)spiro[3.3]heptan-2-yl]-2-(1,1-dioxothiazinan-2-yl)acetamide], the half-inhibitory concentration (IC50) in the data set with HBsAg (setting [2]) came to 3.18 µM; with HBeAg (setting [3]), 2980 nM. This molecule had a CC50 at 144 h in data set [1] of more than 10 µM.

With `[H][C@]1(NC(=O)c2ccnc(S(C)(=O)=O)c2)C[C@]2(C1)C[C@]([H])(c1nc3cc(Cl)ccc3s1)C2` (single isomer, unassigned) [Example 54-b, (Ra)-N-[6-(5-chloro-1,3-benzothiazol-2-yl)spiro[3.3]heptan-2-yl]-2-methylsulfonyl-pyridine-4-carboxamide], the IC50 with HBsAg (setting [4]) worked out at 0.28 µM; with HBeAg (setting [5]) it was 230 nM. Moreover, in data set [1], the CC50 at 144 h was 15.3 µM.

For the molecule `O=C(NC1CC2(C1)CC(c1nc3cc(Cl)ccc3s1)C2)c1ccc(C(F)(F)F)o1` (stereo not drawn) [Example 14, N-[6-(5-chloro-1,3-benzothiazol-2-yl)spiro[3.3]heptan-2-yl]-5-(trifluoromethyl)furan-2-carboxamide], the IC50 with HBsAg (setting [2]) is 2.48 µM; in the data set with HBeAg (setting [3]) it was 2520 nM. Besides, the CC50 at 144 h in data set [1] is more than 100 µM.

For the molecule `O=C(NC1CC2(C1)CC(c1nc3cc(Cl)ccc3s1)C2)c1ccnc(N2CCOCC2)c1` (stereo not drawn) [Example 52, N-[6-(5-chloro-1,3-benzothiazol-2-yl)spiro[3.3]heptan-2-yl]-2-morpholino-pyridine-4-carboxamide], the IC50 in the data set with HBsAg (setting [2]) is 2.59 µM; in the data set on HBeAg (setting [3]), 2790 nM. Besides, the CC50 at 144 h in data set [1] was more than 10 µM.

The values are drawn from US20230331715A1, “SPIRO[3.3]HEPTANE DERIVATIVES FOR THE TREATMENT AND PROPHYLAXIS OF HEPATITIS B VIRUS INFECTION” (priority 2020, published 2023).
